Laboratory results taken from paper PMC8744071 (ACS infectious diseases, 2021).
Entries after “also recorded” stand apart in the source; their conditions may differ. Where a SMILES comes first, the peptide text is derived from it. Primed or numbered codes have the meaning given here. Where no end group is shown, it is not given here. Side-chain parts run from the residue outwards. [ ]: non-standard residue; d: D form. The star is where a group is joined. CB‑TE1A1P = O=C(CN1CCCN2CCN(CCCN(CP(=O)(O)O)CC2)CC1)*; cinnamoyl = O=C(/C=C/c1ccccc1)*; PEG12′ = not defined here

Legend:
lung granulomas = settings: cynomolgus monkey, in vivo
[1] = Gamma counting of Percoll-separated blood fractions; assay type: in vivo, cynomolgus macaques (Macaca fascicularis); settings: Percoll gradient separation: RBC pellet, buffy coat, plasma
FPR1 = molecular target: T1, FPR1 (Homo sapiens, UniProt P21462); assay: FPR1 receptor internalization in GFP-FPR1 HEK293T cells; assay type: cell-based; settings: fluorescence imaging, vs untreated controls
T1 sequence (P21462 1-350): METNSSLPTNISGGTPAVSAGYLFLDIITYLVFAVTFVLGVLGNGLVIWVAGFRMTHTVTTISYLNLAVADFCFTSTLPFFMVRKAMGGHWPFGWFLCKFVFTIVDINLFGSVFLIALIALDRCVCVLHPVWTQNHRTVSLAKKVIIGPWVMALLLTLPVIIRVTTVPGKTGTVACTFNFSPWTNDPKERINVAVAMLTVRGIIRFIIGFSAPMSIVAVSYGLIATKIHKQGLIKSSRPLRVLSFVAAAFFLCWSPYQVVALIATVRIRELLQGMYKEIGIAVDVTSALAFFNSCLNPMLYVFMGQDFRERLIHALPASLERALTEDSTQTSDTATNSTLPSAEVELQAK

Gr-1 stained neutrophils = assay: Immunofluorescence microscopy of CFA-injected mouse paws; assay type: in vivo; settings: inflamed mouse paw, 5 h postprobe injection, frozen sections

## 2-deoxy-2-(^18F)fluoro-D-glucose [^18F-FDG]
Lung granulomas
  18F-FDG liver uptake by PET/CT: minimal
  18F-FDG uptake in lung granulomas by PET/CT: readily identifiable above lung background

## CC(C)C[C@@H](NC(=O)[C@H](Cc1ccccc1)NC(=O)[C@@H](CC(C)C)NC(=O)[C@H](Cc1ccccc1)NC(=O)C=Cc1ccccc1)C(=O)N[C@@H](Cc1ccccc1)C(=O)O [FLFLF, N-cinnamoyl-F-(D)L-F-(D)L-F] (HELM PEPTIDE1{[O=C(C=Cc1ccccc1)[*:2]].F.[dL].F.[dL].F}$$$$V2.0)
[1]
  Distribution of FLFLF in peripheral blood fractions: remains in the plasma fraction rather than being bound to blood cells

## FLFLF-PEG12: pegylated FLFLF tested for FPR1 internalization (cinnamoyl-F[dL]F[dL]FK([PEG12′-CB‑TE1A1P]); also: CB-TE1A1P chelating 64Cu)
FPR1
  FPR1 internalization / signaling: did not lead to internalized receptor

## cinnamoyl-F(D)LF(D)LFK-PEG12-Cy3 [Cy3-FLFLF]
Gr-1 stained neutrophils
  Cy3-FLFLF labeling of cells in tissue / colocalization with Gr-1: labeled neutrophils could be detected in tissues by immunofluorescence, although other non-Gr-1-stained cells were detectable; also recorded: variable amounts of colocalization of Cy3-FLFLF and Gr-1
